These are literature values, as cited in patent US6355633B1, “Aryl sulfonic acids and derivatives as FSH antagonists” (American Home Products Corporation, priority 1999, dated 2002).

In the series the target is T1, FSH receptor (Rattus norvegicus, UniProt P20395).
T1 construct: endogenous in cells; host or cells: primary ovarian granulosa cells of DES-treated immature Sprague-Dawley rats
T1 sequence (P20395 18-692): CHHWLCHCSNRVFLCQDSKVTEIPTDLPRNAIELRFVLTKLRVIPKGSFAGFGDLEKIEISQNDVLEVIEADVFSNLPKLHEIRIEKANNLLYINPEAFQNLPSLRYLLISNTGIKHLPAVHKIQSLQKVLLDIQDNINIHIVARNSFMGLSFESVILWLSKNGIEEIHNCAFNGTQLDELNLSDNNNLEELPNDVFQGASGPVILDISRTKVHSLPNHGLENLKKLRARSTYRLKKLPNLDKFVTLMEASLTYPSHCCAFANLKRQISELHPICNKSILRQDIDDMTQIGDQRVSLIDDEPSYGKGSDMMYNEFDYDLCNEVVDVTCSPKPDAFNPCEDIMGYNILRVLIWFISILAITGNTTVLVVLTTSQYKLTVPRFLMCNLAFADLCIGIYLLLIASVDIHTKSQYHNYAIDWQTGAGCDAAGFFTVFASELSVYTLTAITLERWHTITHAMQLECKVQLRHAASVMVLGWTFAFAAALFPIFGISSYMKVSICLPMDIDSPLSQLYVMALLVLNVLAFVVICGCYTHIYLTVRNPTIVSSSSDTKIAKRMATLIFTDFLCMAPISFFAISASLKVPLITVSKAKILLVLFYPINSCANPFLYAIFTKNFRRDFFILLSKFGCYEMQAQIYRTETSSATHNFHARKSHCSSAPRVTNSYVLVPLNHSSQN
As to conditions: literature report; cited from earlier work.

In the case of `Cc1ccc(C(=O)Nc2ccc(S(=O)(=O)O)c3cc(S(=O)(=O)O)cc(S(=O)(=O)O)c23)cc1NC(=O)c1cccc(NC(=O)Nc2cccc(C(=O)Nc3cc(C(=O)Nc4ccc(S(=O)(=O)O)c5cc(S(=O)(=O)O)cc(S(=O)(=O)O)c45)ccc3C)c2)c1` [suramin, Suramin Sodium], the “inhibition of FSH binding to its receptor” value was “inhibit FSH binding to its receptor”.
